Measurements taken from PMC9394386 (Cancer Discovery, 2022).
“And” between values parts separate entries of the source, which are not always exact repeats. Identical values can stand only once. Positions of bridges follow the written chain, without caps; N, C: chain ends. Non-standard residues stand in square brackets, D forms with d. Residues, ends and D or L forms follow the SMILES beside them. NMeF = CN[C@@H](Cc1ccccc1)C(=O)O; NMeNle = CCCC[C@H](NC)C(=O)O; Sar = CNCC(=O)O

What was measured:
PD-L1 (aa 19-239) [1] = target: T1, PD-L1 (aa 19-239) (Homo sapiens, UniProt Q9NZQ7); experiment: SEC-MALS of PD-L1 complexes; assay type: binding; settings: 15 µmol/L PD-L1, 100 µmol/L compound
T1 sequence (Q9NZQ7 19-239): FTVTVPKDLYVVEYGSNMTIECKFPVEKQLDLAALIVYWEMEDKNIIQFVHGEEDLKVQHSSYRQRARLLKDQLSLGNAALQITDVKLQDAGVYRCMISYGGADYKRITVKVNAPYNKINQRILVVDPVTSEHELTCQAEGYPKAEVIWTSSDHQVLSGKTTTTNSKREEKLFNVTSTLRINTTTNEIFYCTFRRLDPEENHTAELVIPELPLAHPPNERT

MC38 huPD-L1 tumors [2] = experiment: MC38 huPD-L1 tumor efficacy in C57BL/6 mice; assay type: in vivo, mouse
PD-L1 in CHO PD-L1 cells [3] = target: T2, PD-L1 in CHO PD-L1 cells (Homo sapiens, UniProt Q9NZQ7); experiment: Confocal microscopy of PD-L1 internalization; assay type: cell-based; settings: 18 hours, INCB086550 1 µmol/L, atezolizumab 10 µg/mL
T2 sequence (Q9NZQ7 19-290): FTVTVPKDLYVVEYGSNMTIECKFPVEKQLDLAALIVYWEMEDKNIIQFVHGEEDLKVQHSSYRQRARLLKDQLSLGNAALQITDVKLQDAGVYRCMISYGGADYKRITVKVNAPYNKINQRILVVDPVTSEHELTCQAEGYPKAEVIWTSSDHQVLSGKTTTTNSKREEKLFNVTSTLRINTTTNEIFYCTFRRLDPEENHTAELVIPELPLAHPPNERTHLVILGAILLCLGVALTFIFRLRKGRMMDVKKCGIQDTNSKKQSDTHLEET

[4] = system: human T cells with CHO PD-L1 cells; experiment: Artificial antigen-presenting cell system, IFNγ secretion; assay type: cell-based; settings: for Maximal levels of IFNγ, induction: atezolizumab at 10 nmol/L
MC38 huPD-L1 tumors [5] = experiment: MC38 huPD-L1 tumor efficacy in NSG mice; assay type: in vivo, mouse; settings: NSG mice, 2, 20, 200 mg/kg b.i.d.
mouse PD-L1 = mouse PD-L1 (Mus musculus, UniProt Q9EP73); experiment: PD-L1/PD-1 HTRF binding assay, mouse PD-L1
Chain of mouse PD-L1 (Q9EP73 19-238 limits assumed): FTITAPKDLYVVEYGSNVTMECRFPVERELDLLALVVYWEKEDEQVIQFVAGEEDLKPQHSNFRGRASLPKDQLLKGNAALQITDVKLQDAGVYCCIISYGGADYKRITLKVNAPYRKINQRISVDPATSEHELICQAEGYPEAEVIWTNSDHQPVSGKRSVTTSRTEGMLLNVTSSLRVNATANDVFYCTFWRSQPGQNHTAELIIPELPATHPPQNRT

PD-L1 on CHO PD-L1 cells [6] = target: T3, PD-L1 on CHO PD-L1 cells (Homo sapiens, UniProt Q9NZQ7); experiment: Live-cell imaging of PD-L1 internalization; assay type: cell-based; settings: 1 µmol/L
T3 sequence (Q9NZQ7 19-290): as the sequence (Q9NZQ7 19-290) above

Tolerability in mice = settings: mouse, in vivo
PD-L1 on CHO PD-L1 cells [7] = target: T3, PD-L1 on CHO PD-L1 cells; experiment: Unoccupied and total PD-L1 by flow cytometry; assay type: cell-based; settings: 18 hours
[8] = system: PD-1–mediated SHP recruitment; experiment: PD-1–SHP reporter assay; assay type: cell-based; settings: read-out: IC50, SHP recruitment
target lesion = experiment: Clinical activity in phase I study; assay type: in vivo, human; settings: patient, week 24
PD-L1 (aa 19-239) [9] = target: T1, PD-L1 (aa 19-239); experiment: Isothermal titration calorimetry; assay type: binding
[10] = 28-day toxicology study in rats; assay type: in vivo, rat
cynomolgus PD-L1 = cynomolgus PD-L1 (Macaca fascicularis, UniProt G7PSE7); experiment: PD-L1/PD-1 HTRF binding assay, cynomolgus PD-L1
Chain of cynomolgus PD-L1 (G7PSE7 19-239): as the sequence (Q9NZQ7 19-239) above, with A33T, A34S, S62N, R68Q, Q82R, F173L, T185A, T192I, H215L counted along it
Chain of cynomolgus PD-L1 (Q15116 25-167 partner): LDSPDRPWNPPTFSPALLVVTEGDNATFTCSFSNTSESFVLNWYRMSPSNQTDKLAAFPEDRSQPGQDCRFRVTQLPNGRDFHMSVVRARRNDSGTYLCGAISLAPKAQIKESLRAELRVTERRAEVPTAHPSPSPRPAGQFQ

[11] = target: human PD-L1 on MBT2 clones (Homo sapiens, UniProt Q9NZQ7); experiment: Isogenic MBT2 cell line PD-L1 internalization; assay type: cell-based; settings: EC50, PD-L1 internalization (MIH1), 16 hours
Chain of human PD-L1 on MBT2 clones (Q9NZQ7 19-127 limits assumed): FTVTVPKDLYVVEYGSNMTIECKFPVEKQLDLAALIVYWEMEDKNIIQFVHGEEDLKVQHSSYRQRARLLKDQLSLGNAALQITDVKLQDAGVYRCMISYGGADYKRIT

PD-L1 in CHO PD-L1 cells [12] = target: T2, PD-L1 in CHO PD-L1 cells; experiment: Total PD-L1 by Western blot; assay type: cell-based; settings: 0.2 or 1 µM
PD-L1 [13] = target: T4, PD-L1 (Homo sapiens, UniProt Q9NZQ7); experiment: Flow cytometry competition with anti–PD-L1 mAbs on CHO PD-L1 cells; assay type: cell-based; settings: 1 µmol/L
Target sequence in this assay (Q9NZQ7 19-290): as the sequence (Q9NZQ7 19-290) above

PD-L1 on monocytes [14] = target: PD-L1 on monocytes (Macaca fascicularis, UniProt G7PSE7); experiment: Unoccupied PD-L1 on monocytes in cynomolgus whole blood; assay type: cell-based, cynomolgus monkey; settings: read-out: EC50, reducing unoccupied cell-surface PD-L1 on monocytes
Chain of PD-L1 on monocytes (Macaca fascicularis, UniProt G7PSE7) (G7PSE7 19-290): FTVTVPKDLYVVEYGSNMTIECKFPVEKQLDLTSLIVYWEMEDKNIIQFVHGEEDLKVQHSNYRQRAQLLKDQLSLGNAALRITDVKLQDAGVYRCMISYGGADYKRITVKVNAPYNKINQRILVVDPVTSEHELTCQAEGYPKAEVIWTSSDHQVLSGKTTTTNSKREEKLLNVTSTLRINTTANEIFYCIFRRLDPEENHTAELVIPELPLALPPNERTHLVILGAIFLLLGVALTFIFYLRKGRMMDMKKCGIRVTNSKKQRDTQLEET

MDA-MB-231 tumors = experiment: MDA-MB-231 tumor efficacy in NSG mice; assay type: in vivo, mouse; settings: 20 mg/kg
PD-L1 on monocytes [15] = target: T5, PD-L1 on monocytes (Homo sapiens, UniProt Q9NZQ7); experiment: Unoccupied PD-L1 on monocytes in human whole blood; assay type: cell-based
T5 sequence (Q9NZQ7 19-290): as the sequence (Q9NZQ7 19-290) above

[16] = 28-day toxicology study in monkeys; assay type: in vivo, monkey
human PD-L2 = human PD-L2 (Homo sapiens, UniProt Q9BQ51); experiment: PD-L2/PD-1 HTRF binding assay
Chain of human PD-L2 (Q9BQ51 20-219 limits assumed): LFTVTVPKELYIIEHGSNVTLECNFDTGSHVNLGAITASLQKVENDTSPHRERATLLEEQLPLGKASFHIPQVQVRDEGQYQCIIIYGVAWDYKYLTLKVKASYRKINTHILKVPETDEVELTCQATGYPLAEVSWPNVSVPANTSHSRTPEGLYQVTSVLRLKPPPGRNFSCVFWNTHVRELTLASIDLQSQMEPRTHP

[17] = target: PD-L1 on MC38 huPD-L1 tumors (Homo sapiens, UniProt Q9NZQ7); experiment: PD-L1 levels on MC38 huPD-L1 tumors; assay type: in vivo, mouse; settings: 200 mg/kg, clone MIH1
Chain of PD-L1 on MC38 huPD-L1 tumors (Q9NZQ7 19-290): as the sequence (Q9NZQ7 19-290) above

NFAT signaling = experiment: NFAT reporter assay; assay type: cell-based; settings: read-out: NFAT activation (IC50 in Table 1, EC50 in text)
[18] = system: plasma CXCL9, CXCL10, IFNγ, PD-L1; experiment: Proteins in peripheral blood of phase I patients; assay type: in vivo, human
PD-L1 on CHO PD-L1 cells [19] = target: T3, PD-L1 on CHO PD-L1 cells; experiment: Cell-based PD-1 binding assay; settings: concentrations ≥160 nmol/L
PD-L1 on monocytes [20] = target: T5, PD-L1 on monocytes; experiment: Available PD-L1 on monocytes from clinical study patients; assay type: in vivo
PD-L1 [21] = target: T4, PD-L1; experiment: PD-L1/PD-1 HTRF binding assay, human PD-L1
Target sequence in this assay (Q9NZQ7 19-238 limits assumed): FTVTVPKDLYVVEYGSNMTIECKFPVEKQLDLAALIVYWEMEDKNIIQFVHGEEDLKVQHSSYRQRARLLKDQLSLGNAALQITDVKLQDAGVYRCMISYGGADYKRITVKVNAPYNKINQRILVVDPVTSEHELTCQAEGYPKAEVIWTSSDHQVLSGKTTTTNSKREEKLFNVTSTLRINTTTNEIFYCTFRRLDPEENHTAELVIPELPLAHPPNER

[22] = target: Human PD-L1-FLAG tag protein (Homo sapiens, UniProt Q9NZQ7); experiment: SPR antibody competition; assay type: binding; settings: 1 µM
Chain of Human PD-L1-FLAG tag protein (Q9NZQ7 19-290): as the sequence (Q9NZQ7 19-290) above

rat PD-L1 = rat PD-L1 (Rattus norvegicus, UniProt D4AE25); experiment: PD-L1/PD-1 HTRF binding assay, rat PD-L1; settings: human PD-1
Chain of rat PD-L1 (D4AE25 19-238): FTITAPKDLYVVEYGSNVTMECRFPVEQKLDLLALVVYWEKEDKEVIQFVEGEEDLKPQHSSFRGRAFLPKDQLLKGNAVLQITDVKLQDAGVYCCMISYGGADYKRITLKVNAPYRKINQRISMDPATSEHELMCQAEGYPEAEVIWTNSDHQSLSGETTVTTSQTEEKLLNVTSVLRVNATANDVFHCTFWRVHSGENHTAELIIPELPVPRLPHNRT
Chain of rat PD-L1 (Q15116 25-167 partner): as the sequence (Q15116 25-167 partner) above

[23] = all tested doses up to 1,000 mg/kg

CCCC[C@H]1C(=O)N(C)CC(=O)N[C@@H](CC(=O)O)C(=O)N[C@@H](C(C)C)C(=O)N(C)[C@@H](Cc2ccccc2)C(=O)N[C@@H](Cc2ccc(O)cc2)C(=O)N(C)CC(=O)N[C@@H](Cc2c[nH]c3ccccc23)C(=O)N[C@@H](Cc2ccc(O)cc2)C(=O)N[C@@H](CC(C)C)C(=O)N[C@H](C(=O)NCC(N)=O)CSCC(=O)N[C@@H](Cc2ccccc2)C(=O)N(C)[C@@H](Cc2ccccc2)C(=O)N1C [peptide 71, reference compound] ({CH2CO}-F[NMeF][NMeNle][Sar]DV[NMeF]Y[Sar]WYLCG-NH2; thioether N-13; N-terminus and C-terminus assumed)
SEC-MALS peak of PD-L1 in presence of compound (PD-L1 (aa 19-239) [1]): approximately 33 kDa

atezolizumab: clinical anti–PD-L1 monoclonal antibody [reference compound]
tumor growth inhibition (TGI) (MC38 huPD-L1 tumors [2]; 5 mg/kg intraperitoneally every 5 days): 73% | PD-L1 internalization, clone 28-8 staining (PD-L1 in CHO PD-L1 cells [3]): only minor levels of PD-L1 internalization | Maximal levels of IFNγ, induction [4]: 433%

Cc1c(Nc2nccc3cc(CN4CC[C@@H](O)C4)cnc23)cccc1-c1cccc(-c2nc3cc(CN4CC[C@@H](C(=O)O)C4)cc(C#N)c3o2)c1C [INCB086550]
Antitumor activity in immunodeficient mice (MC38 huPD-L1 tumors [5]): abolished | tumor growth inhibition (TGI) (MC38 huPD-L1 tumors [2]; 2 mg/kg p.o. b.i.d., day 16): 32% | tumor growth inhibition (TGI) (MC38 huPD-L1 tumors [2]; 20 mg/kg p.o. b.i.d., day 16): 66% | tumor growth inhibition (TGI) (MC38 huPD-L1 tumors [2]; 200 mg/kg p.o. b.i.d., day 16): 69% | IC50 (mouse PD-L1): > 10000 nM | Binding to mouse PD-L1 (mouse PD-L1; HTRF): not detected | Time to maximal PD-L1 internalization (PD-L1 on CHO PD-L1 cells [6]): ~4 h | Adverse effects in mice (Tolerability in mice): no adverse effects | Epitope occupancy of PD-L1, clone MIH1 (PD-L1 on CHO PD-L1 cells [7]): > 90% | Reduction of PD-L1 staining, clone 28-8 (total cell-surface PD-L1) (PD-L1 on CHO PD-L1 cells [7]): approximately 70% | IC50 [8]: 6.3 ± 2.5 nM | Preliminary clinical activity (target lesion): decrease in target lesion volume | Binding stoichiometry n (ITC) (PD-L1 (aa 19-239) [9]): 0.6 | Dose at which associated events were observed (minimal to mild, nonadverse) [10]: 1,000 mg/kg/day | Tolerability [10, 23]: well tolerated | IC50 (cynomolgus PD-L1): 4.9 ± 1.6 nM | EC50 ([11]; MBT2-PD-L1 high): 0.1 nM | EC50 ([11]; MBT2-PD-L1 low): 3.7 nM | EC50 ([11]; MBT2-PD-L1 medium): 0.4 nM | PD-L1 internalization, clone 28-8 staining (PD-L1 in CHO PD-L1 cells [3]): internalization of PD-L1 and increased cytoplasmic staining | Change in total PD-L1 in cells (PD-L1 in CHO PD-L1 cells [12]): decrease of overall PD-L1 | SEC-MALS peak of PD-L1 in presence of compound (PD-L1 (aa 19-239) [1]): ~69 kDa | Binding of atezolizumab and durvalumab to PD-L1 after pretreatment (PD-L1 [13]): blocked binding | EC50 (PD-L1 on monocytes [14]): 4.5 nM | Antitumor activity in immunodeficient mice (MDA-MB-231 tumors): abolished | Maximal levels of IFNγ, induction [4]: 425% | Toxicity to cells ([4]; cell-based assays): No overt toxicity | EC50 (PD-L1 on monocytes [15]): 88 nM | IC90 (PD-L1 on monocytes [15]; read-out: whole blood IC90): 792 nM | Tolerability [16, 23]: well tolerated | Doses with emesis ([16]; no evidence of target organ toxicity): ≥ 200 mg/kg/day | IC50 (human PD-L2): > 10000 nM | Inhibition of binding of PD-L2 to human PD-1 (human PD-L2; concentrations up to 10 µmol/L): not inhibited | Maximum reduction of occupied PD-L1 [17]: > 90% | EC50 (NFAT signaling): 21.4 ± 8.4 nM | Increase in plasma cell-free PD-L1 vs baseline ([18]; all dose levels, cycle 2 day 1): 1.4 fold | Increase in plasma IFNγ vs baseline ([18]; cycle 1 day 8): 3.8 fold | Increase in plasma CXCL9 vs baseline ([18]; cycle 2 day 1): 1.8 fold | Increase in plasma CXCL10 vs baseline ([18]; cycle 2 day 1): 1.4 fold | Inhibition of PD-1/PE binding (PD-L1 on CHO PD-L1 cells [19]): > 90% | Dose reaching maximum inhibition of free PD-L1 (PD-L1 on monocytes [20]): 200 mg b.i.d. | IC50 (PD-L1 [21]): 3.1 ± 1.2 nM | Binding of atezolizumab and durvalumab to PD-L1 (SPR) [22]: inhibited binding | IC50 (rat PD-L1): 1.9 nM and < 1.5 nM
